Measured values: article PMC7151078, “A Novel NMDA Receptor Antagonist Protects against Cognitive Decline Presented by Senescent Mice” (Pharmaceutics, 2020)

Key:
CYP2C9 = biological target: T1, CYP2C9 (Homo sapiens, UniProt P11712); assay: Cytochrome inhibition, fluorescent detection (7-MFC substrate); assay type: in vitro ADME; settings: recombinant human CYP2C9
T1 construct: host or cells: insect cell microsomes
Method: (§1) To screen the inhibition potential of the compounds, recombinant human cytochrome P450 enzymes (CYP1A2, CYP2C9, CYP2C19, CYP2D6, and CYP3A4) and probe substrates were used with the fluorescent detection method. Incubations were conducted in 200-µL volume 96 well microtiter plates (COSTAR 3915). Addition of cofactor-buffer mixture (KH2PO4 buffer, 1.3 mM NADP+, 3.3 mM MgCl2, 3.3 mM Glucose-6-phosphate and 0.4 U/mL Glucose-6-phosphate Dehydrogenase), supersomes control, standard inhibitors (Furafyline, Tranylzypromine, Ketoconazole, Sulfaphenazole, and Quinidine; from Sigma Aldrich), and test compounds to plates were carried out using a a liquid handling station (Zephyr Caliper). The plate was then pre-incubated at 37 °C for 5 min, and the reaction initiated by the addition of pre-warmed enzyme/substrate (E/S) mix. […] Fluorescence per well was measured using a fluorescence plate reader (Tecan M1000 pro), and the percentage of inhibition was calculated.

CYP2D6 = biological target: T2, CYP2D6 (Homo sapiens, UniProt P10635); assay: Cytochrome inhibition, fluorescent detection (AMMC substrate); assay type: in vitro ADME; settings: recombinant human CYP2D6
T2 construct: host or cells: insect cell microsomes
T2 sequence (P10635 whole entry): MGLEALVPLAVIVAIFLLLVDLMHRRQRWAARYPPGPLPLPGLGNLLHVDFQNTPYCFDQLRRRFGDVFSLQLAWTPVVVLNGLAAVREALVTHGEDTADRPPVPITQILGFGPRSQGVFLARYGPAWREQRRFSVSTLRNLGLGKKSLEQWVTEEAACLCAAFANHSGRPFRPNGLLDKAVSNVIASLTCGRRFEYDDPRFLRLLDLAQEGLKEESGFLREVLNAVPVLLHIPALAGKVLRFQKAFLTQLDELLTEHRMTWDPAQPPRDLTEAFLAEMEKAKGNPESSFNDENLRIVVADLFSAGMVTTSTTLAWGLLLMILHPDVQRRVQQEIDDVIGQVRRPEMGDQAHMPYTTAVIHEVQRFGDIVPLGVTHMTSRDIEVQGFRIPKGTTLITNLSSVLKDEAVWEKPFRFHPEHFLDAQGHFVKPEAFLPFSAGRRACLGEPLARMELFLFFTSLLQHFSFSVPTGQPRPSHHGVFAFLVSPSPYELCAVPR
Method: as §1

SAMR1 and SAMP8 mice [1] = assay: Object location test (OLT); assay type: in vivo, mouse; settings: both treated mice groups (SR1 and SP8), 5 mg/kg/day
Method: Male SAMR1 and SAMP8 mice (n = 41) with 20-weeks-old were used to carry out cognitive and molecular analysis. The animals were randomly divided into four groups: SAMR1 control (SR1 Ct) group (n = 11), SAMP8 control (SP8 Ct) group (n = 8), SAMR1 treated with RL-208 (SR1 RL-208 (5 mg/Kg)) group (n = 10) and SAMP8 treated with RL-208 (SP8 RL-208 (5 mg/Kg)) group (n = 12). Animals had free access to food and water, under standard temperature conditions (22±2 °C) and 12h:12h light-dark cycles (300 lux/0 lux). RL-208, (3,4,8,9-tetramethyltetracyclo[4.4.0.0^3,9.0^4,8]dec-1-yl)-methylamine hydrochloride, (5 mg/kg/day) was administered through drinking water for four weeks before starting the cognitive test. RL-208 was administered up to euthanasia (Figure 1A). Water consumption was controlled each week for each cage and strain. Afterwards, RL-208 concentration was adjusted accordingly to reach the optimal dose for each cage. […] Trials were recorded using a camera mounted above the open field area, and the total exploration time was determined by scoring the amount of time (seconds) spent sniffing the object in the new location (TN) and the object in the old location (TO). In order to evaluate the cognitive performance, the DI was calculated, which is defined as (TN-TO)/(TN+TO).

SAMR1 and SAMP8 mice [2] = assay: Oxidative stress: hydrogen peroxide levels (fluorimetric kit); assay type: in vivo, mouse; settings: hippocampus, both RL-208 treated mice groups vs control groups
Method: Male SAMR1 and SAMP8 mice (n = 41) with 20-weeks-old were used to carry out cognitive and molecular analysis. The animals were randomly divided into four groups: SAMR1 control (SR1 Ct) group (n = 11), SAMP8 control (SP8 Ct) group (n = 8), SAMR1 treated with RL-208 (SR1 RL-208 (5 mg/Kg)) group (n = 10) and SAMP8 treated with RL-208 (SP8 RL-208 (5 mg/Kg)) group (n = 12). Animals had free access to food and water, under standard temperature conditions (22±2 °C) and 12h:12h light-dark cycles (300 lux/0 lux). RL-208, (3,4,8,9-tetramethyltetracyclo[4.4.0.0^3,9.0^4,8]dec-1-yl)-methylamine hydrochloride, (5 mg/kg/day) was administered through drinking water for four weeks before starting the cognitive test. RL-208 was administered up to euthanasia (Figure 1A). Water consumption was controlled each week for each cage and strain. Afterwards, RL-208 concentration was adjusted accordingly to reach the optimal dose for each cage. […]

NMDAR = system: NMDAR; parameters: method as in PMID 29767953; settings: early preclinical in vitro experiments; cited from earlier work

T1 sequence (P11712 whole entry): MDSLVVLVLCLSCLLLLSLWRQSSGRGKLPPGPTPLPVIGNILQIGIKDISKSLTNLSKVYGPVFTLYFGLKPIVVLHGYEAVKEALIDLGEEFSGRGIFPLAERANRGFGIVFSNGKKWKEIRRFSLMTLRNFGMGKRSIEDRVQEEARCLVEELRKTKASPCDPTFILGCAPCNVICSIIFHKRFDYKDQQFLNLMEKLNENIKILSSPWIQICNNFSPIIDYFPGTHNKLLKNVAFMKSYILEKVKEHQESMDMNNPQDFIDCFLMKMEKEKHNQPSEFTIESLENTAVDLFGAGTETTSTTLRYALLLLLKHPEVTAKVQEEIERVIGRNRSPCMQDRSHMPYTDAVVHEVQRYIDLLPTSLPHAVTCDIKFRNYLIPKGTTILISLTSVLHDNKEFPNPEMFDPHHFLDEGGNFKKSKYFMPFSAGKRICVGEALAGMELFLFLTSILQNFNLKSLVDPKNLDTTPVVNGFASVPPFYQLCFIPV

Question: Which CYP2C9 inhibition (CYP2C9) does the source give for CC12CC3CC1(C)C1(C)CC3(CN)CC21C.Cl [RL-208, (3,4,8,9-tetramethyltetracyclo [4.4.0.0^3,9.0^4,8]dec-1-yl)methylamine hydrochloride] here?
Answer: 12 ± 2%

Question: And the CYP2D6 inhibition (CYP2D6)?
Answer: 10 ± 3%

Question: And the “OLT spatial memory (DI)” value (SAMR1 and SAMP8 mice [1])?
Answer: significant higher DI values

Question: And the “hydrogen peroxide (ROS) levels” value (SAMR1 and SAMP8 mice [2])?
Answer: significant decrease

Question: What about the IC50 (NMDAR) of the same compound?
Answer: ~1000 nM
